This passage reports Activity results from ChEMBL document CHEMBL6074686 (Eur J Med Chem, 2025).

Calls of active or inactive are those of the source. The rule behind the calls is not given here.

The subject of data set [1] is SK-OV-3. Put plainly: Induction of cell cycle arrest in human SK-OV-3 cells assessed as decrease in Cyclin-B1 expression at 100 nM incubated for 24 hrs by Western blotting analysis. The class given is functional, cell-based. (In general: In western blotting, separated proteins are transferred to a membrane and probed.)
The subject of data set [2] is SK-OV-3. Put plainly: Inhibition of cell migration in human SK-OV-3 cells assessed as wound closure ratio at 6.25 nM incubated for 24 hrs by wound healing assay (reference value: 100%). More on the design: scale not given: the % may be the effect or the level left. The class given is functional.
Data set [3] relates to MCF7. Description: Inhibition of cell migration in human MCF7 cells assessed as ratio of migrated cells at 3.125 nM incubated for 24 hrs by crystal violet staining based inverted microscopic analysis (reference value: 100%). The class given is functional. More on the design: scale not given: the % may be the effect or the level left.
Data set [4] has as its system MCF7. Put plainly: Inhibition of cell migration in human MCF7 cells assessed as ratio of migrated cells at 50 nM incubated for 24 hrs by crystal violet staining based inverted microscopic analysis (reference value: 100%). The class given is functional. More on the design: scale not given: the % may be the effect or the level left.
Data set [5] deals with MCF7. Put plainly: Inhibition of cell migration in human MCF7 cells assessed as wound closure ratio at 2.5 nM incubated for 24 hrs by wound healing assay (reference value: 100%). In kind it is functional. More on the design: scale not given: the % may be the effect or the level left.
Data set [6] is described as follows: Toxicity in female BALB/c nude mouse xenografted with human SK-OV-3 cells assessed as drug tolerance by measuring reduction in water intake at 30 mg/kg, administered via tail vein for 5 days and measured daily. The class given is organism-based. The following applies: in vivo, iv, 120 h, time 5 day. On the technique in general: In xenograft studies the graft and the host belong to different species.

The subject of data set [7] is MCF7. Description: Induction of apoptosis in human MCF7 cells assessed as downregulation of cleaved-PARP expression at 100 nM incubated for 24 hrs by Western blotting analysis. In kind it is functional, cell-based.
The test system of data set [8] is SK-OV-3. Put plainly: Induction of cell cycle arrest in human SK-OV-3 cells assessed as increase in G2/M phase cells incubated for 24 hrs PI staining based flow cytometric analysis. In kind it is functional. The following applies: dose 2.5-40 nM.

Take `CNc1nc(N2CCCc3cc(OC)ccc32)c2cc(F)ccc2n1`: the result in data set [1] was Active. The Activity was 84.3% in data set [2]; 94.5% in data set [3]; 11.7% in data set [4]; 98.8% in data set [5]; “Toxic” in data set [6]; “Dose-dependent-effect” in data set [8]. Moreover, in data set [7], the outcome was inactive.
